Patent US20110160121A1, “UNACYLATED GHRELIN AND ANALOGS AS THERAPEUTIC AGENTS FOR VASCULAR REMODELING IN DIABETIC PATIENTS AND TREATMENT OF CARDIOVASCULAR DISEASE” (ALIZE PHARMA SAS, priority 2008, published 2011)
Where no end group is shown, it is not given here.

Tests used:
CAC [1] = experiment: CAC cell-cycle progression (percentage of cells in S phase, FACS); format: cell-based, human; details: cultured CAC; effect still evident after 7 days of culture; FIG. 1A
Description: First, cell-cycle progression in response to UAG and AG was evaluated. […] To investigate whether this effect relies on inhibition of baseline ROS production, DCF-DA assay was performed. […] H2O2 was used as positive control. AGE-mediated damage signals mainly rely on ROS production (Ref. 29). […] Isolation and Culture of CAC from Peripheral Blood Mononuclear Cells—Peripheral-blood mononuclear cells (PB-MNC) isolated by Fycoll Histopaque 1077 (Sigma) were resuspended in 20% FBS 199 Medium and plated on fibronectin-coated dishes (Biocoat, Becton Dickinson Labware) as described by Hill et al. (Ref. 19). Human UAG studies were performed on CAC recovered from normal donors and diabetic patients. The purity of sorted cells was assessed by FACS analysis (Ref. 20). For experiments, the isolated CAC were cultured under 5% CO2 at 37° C. for 4 days on 20 μg/ml fibronectin-coated dishes in EGM-2 medium containing 10% FBS, hydrocortisone, human Fibroblast Growth Factor, Vascular Endothelial Growth Factor, Insulin Growth Factor 1, ascorbic acid, human Epidermal Growth Factor, gentamicin and amphotericin-B (Cambrex, Walkersville, Md., USA) alone or in combination with 1 μM UAG and 1.2 mg/ml AGE. […] Cell surface molecules were evaluated by flow cytometry as previously described (Ref. 24). Frequency of marker-positive cells is expressed as mean±standard deviation (SD).

CAC [2] = experiment: Detection of ROS in CAC (DCF-DA assay, FACS); format: cell-based, human
Description: First, cell-cycle progression in response to UAG and AG was evaluated. […] To investigate whether this effect relies on inhibition of baseline ROS production, DCF-DA assay was performed. […] H2O2 was used as positive control. AGE-mediated damage signals mainly rely on ROS production (Ref. 29). […] Detection of ROS—DCF-DA (0.5 μM final concentration) was added to CAC in the indicated culture conditions. At the indicated times, the cells were subjected to FACS analysis and processed as previously described (Ref. 22). H2O2 was used as positive control.

CAC [3] = experiment: Expansion (S phase) of CAC recovered from treated patients, cultured with IL-3; format: in vivo, human; details: cells recovered from treated diabetic patients; FIG. 3C
Description: (§1) To confirm their vascular features, the cells recovered from patients and controls were cultured with IL-3; which is able to induce expansion and arterial morphogenesis of CD45^+ cells derived from both peripheral blood and BM (Ref. 28).
(§2) Flow Cytometry—To analyze CAC cell-cycle progression, cells recovered from diabetic, healthy subjects, NOD/SCID, ob/ob and wt mice, were cultured in EBM-2 supplemented with IL-3 (10 ng/ml), FACS analysis was performed as previously described (Ref. 20). Cell surface molecules were evaluated by flow cytometry as previously described (Ref. 24). Frequency of marker-positive cells is expressed as mean±standard deviation (SD).

CAC [4] = experiment: Arterial morphogenesis by Q-RT-PCR (Ephrin B2, Notch1, Notch4, EphB4) of CAC from treated patients; format: in vivo, human; details: cells obtained from treated patients, cultured with IL-3; FIG. 3D
Description: as §1
(§3) RNA isolation and quantitative real-time PCR—CAC from diabetic patients, healthy subjects and mice treated with UAG or saline were cultured in EGM-2 medium. Human arterial and venous cells were used as a positive controls. mRNA quantification was performed by Q-RT-PCR, as previously described (Ref. 24). The relative expression of Ephrin B2, Notch1, Notch4 and EphB4 were calculated by using comparative threshold cycle methods. The human and murine primer sequences used were described (Refs. 25, 26).

CAC [5] = experiment: Expansion and arterial commitment of CAC recovered from UAG-challenged mice, cultured with IL-3; format: in vivo, mouse
Description: After treatment, cells were recovered, assayed by FACS analysis, counted and cultured. […] Black lines refer to preimmune IgG used as negative control and grey lines refer to surface marker expression. Similar results were obtained when CAC from untreated diabetic mice as well as untreated or treated wild-type mice were analyzed (data not shown).
as §3
as §2, with “(SD). […]” for “(SD).”

CAC membranes = experiment: Saturation binding experiment on CAC membranes (Scatchard analysis); design: species or system human
cardiomyocytes = details: Ref. 8; cited from earlier work
human arteries = details: Ref. 35; cited from earlier work
[6] = Scatchard analysis, CAC membranes

radioligand concentration at maximum specific binding (saturable) (CAC membranes; CAC membranes, FIG. 5B): 2 nM
Bmax (CAC membranes; [6]): 10.7 fmol/mg membrane protein
Hill coefficient (CAC membranes; [6]): ~1
Kd (CAC membranes; Scatchard analysis, single class of binding sites on CAC): 0.48 nM
Substance: 1-NH2Gly-Ser-Ser-Phe-Leu-Ser-Pro-Glu-His-Gln-Arg-Val-Gln-Gln-Arg-Lys-Glu-Ser-Lys-Lys-Pro-Pro-Ala-Lys-Leu-Gln-Pro-Arg-28 (H-GSSFLSPEHQRVQQRKESKKPPAKLQPR; ends and bridges not checked; listed as Homo sapiens) [UAG]
percentage of cells in S phase (CAC [1]): significant increase in the percentage of cells in S phase
level of ROS production in AGE-cultured cells (CAC [2]; AGE-cultured CAC, FIG. 1C, 1F): the level of ROS production in AGE-cultured cells was reduced
intracellular ROS production in diabetic-recovered cells (CAC [2]; CAC isolated from type 2 diabetic patients, treated in vitro, FIG. 1D): reduced intracellular ROS production
baseline level of ROS production (CAC [2]; CAC, compared to untreated cells, FIG. 1B, 1E): drastically reduces the baseline level of ROS production
cell expansion (cells in S phase) with IL-3 (CAC [3]): underwent cell expansion
arterial specification (Ephrin B2, Notch1, Notch4; EphB4) (CAC [4]): able to undergo arterial specification
arterial commitment of recovered CAC (CAC [5]; CAC from UAG-challenged mice cultured in the presence of IL-3, FIG. 4D): acquire arterial commitment
expansion of recovered CAC (CAC [5]; CAC from UAG-challenged mice, FIG. 4C): could be expanded
inhibition of experimentally-induced cell death (cardiomyocytes): inhibit experimentally-induced cell death
vasodilator action (human arteries): have vasodilator actions in human arteries
